In patent publication EP1800684A1, “Novel alkyl phospholipid derivatives and uses thereof” (Zentaris GmbH, priority 2005, dated 2007):
Values after ≈ are worked out from the molar mass of the structure shown.

Assays:
Type in all cases: cell-based
[1] = test system: Aspergillus fumigatus (ATCC 204305); test: Anti-fungal susceptibility test (microdilution), fungus H; conditions: Aspergillus fumigatus, ATCC204305, no visible growth after 72 hours at 35° C, read-out: MIC
Description: (§1) The antifungal activities of the test compounds (compounds of the invention and known prior art compounds) were measured according to standard microdilution methods (Cryptococcus/Aspergillus: Ghannoum et al., Journal of Clinical Microbiology 1992, 30 (11): 2881-2886; Candida: Reference method for broth dilution susceptibility testing of yeast: proposed standard, NCCLS document M27-P, National Committee for Clinical Laboratory Standards 1992, Villanova, Pa).
(§2) A serial dilution series starting from 64 µg/mL test compound per well down to 0.125 µg/mL test compound per well was applied for each test compound on each fungus. The MIC of each compound was defined as the concentration which produces no visible growth after 48 hours (Candida) and 72 hours (Cryptococcus, Aspergillus) of culture at 35° C.
(§3) The following fungi were assessed: • A) Candida albicans (ATCC 10231) • B) Candida albicans (ATCC 90028) • C) Candida albicans (strain TS3, Shrikantha et al., Journal of Bacteriology 2000, 182(6):1580-1591) • D) Candida parapsilosis (ATCC 22019) • E) Cryptocoocus neoformans (ATCC 90112) • F) Cryptocoocus neoformans (strain H99; Ganendren et al., Antimicrobial Agents and Chemotherapy, 2004, 48(5):1561-1569) • G) Cryptocoocus gattii (ATCC 32608) • H) Aspergillus fumigatus (ATCC 204305) • I) Aspergillus fumigatus (strain 322-384)

[2] = test system: Trypanosoma brucei rhodesiense (strain STIB900); test: In vitro drug activity assay, protozoon B (bloodstream form trypomastigotes, Alamar Blue); conditions: incubated for 72 hours
Description: Trypanosoma brucei rhodesiense STIB900 bloodstream form trypomastigotes were maintained in HMI-18 medium (Hirumi H, Hirumi K, J Parasitol. 1989, 75(6):985-989) with 15% heat-inactivated fetal calf serum at 37°C, 5% CO2, humidified atmosphere. Trypomastigotes were washed and resuspended in fresh medium at a concentration of 2 x 10^5 mL. Test compounds were given to the trypomastigotes and plates were incubated for 72 hours at 37°C, 5% CO2, humidified atmosphere. At 72 hours the plates were assessed microscopically before Alamar Blue was added (Raz et al., Acta Trop. 1997, 68: 139-147). Plates were read after 5 to 6 hours at EX/EM 530/585 nm with a filter cutoff at 550 nm. ED50 values were calculated with Msxlfit (IDBS).
The following protozoa were assessed: • A) Trypanosoma cruzi (Tulahuan-LACZ amstigotes in PEM, Lorente SO et al., Antimicrobial agents and chemotherapy 2004, 48(8): 2937-2950; Buckner et al., Infection and Immunity 1999, 67(1): 403-409; Buckner et al., Antimicrobial Agents and Chemotherapy 1996, 40(11): 2592-2597) • B) Trypanosoma brucei rhodesiense (strain STIB900, Lorente SO et al., Antimicrobial agents and chemotherapy 2004, 48(8): 2937-2950; Habtemariam S, BMC Pharmacology 2003, 3:6) • C) Plasmodium falciparum (strain K1, Korsinczky M et al., Antimicrobial agents and chemotherapy 2000, 44(8): 2100-2108; Thaitong S and Beale GH, Trans. R. Soc. Trop. Med. Hyg. 1981, 75: 271-273; Trager W and Jensen JB, Science 1976, 193: 673-675) • D) Plasmodium falciparum (strain 3D7, Mu et al., PLoS Biology 2005, 3(10): e335)

[3] = test system: Candida albicans (ATCC 90028); test: Anti-fungal susceptibility test (microdilution), fungus B; conditions: Candida albicans, ATCC90028, no visible growth after 48 hours at 35° C, read-out: MIC
Description: as §1, §2, §3

[4] = test system: PC3 (ATCC CRL1435, human prostate carcinoma); test: XTT cytotoxicity assay, PC3 cells; conditions: PC-3, 48 h, 2 days of continuous drug exposure
Description: (§4) Human tumor cell lines KB/HeLa (ATCC CCL17, human cervix carcinoma), PC3 (ATCC CRL1435, human prostate carcinoma) and RKOp21 (human colon adenocarcinoma) cells were used in an automated XTT screening assay for the assessment of cytotoxicity.
(§5) The XTT assay quantifies cellular metabolic activity which correlates with cell viability and cell number. Test compounds (selected compounds of the invention and known substances as controls) are dissolved in culture medium at 600µM and added to the tumor cells in 10 different concentrations in a semi-logarithmic fashion starting from 100 µM as highest concentration.
(§6) 48h later cellular metabolic activity of cells treated with test compounds is quantified by measurement of the absorbance at 490nm (conversion of XTT dye) in comparison to untreated control cells (100% viability).
(§7) KB/HeLa and PC3 cells were cultivated in RPMI medium supplemented with 10% heat inactivated fetal calf serum, 2 mM glutamine, 100 U/ml penicillin, and 100 µg/ml streptomycin. RKOp21 cells were grown in DMEM supplemented with 10% heat inactivated fetal calf serum, 2 mM glutamine, 100 U/ml penicillin, and 100 µg/ml streptomycin. All cells were cultured at 37°C in 5% CO2 humidified air.
(§8) On the first day of the experiment cells were harvested from exponential phase cultures by trypsination, counted and plated into 96 well flat-bottom micro titer plates depending on the cell line as listed below:
(§9) After a 24h recovery to allow the cells to resume exponential growth, the test compounds were diluted immediately prior to use and transferred in 25µl volume to the wells.
(§10) Following 2 days of continuous drug exposure 50µl of freshly prepared XTT-PMS solution (2% […] PMS in PBS + 98% 1 mg/ml XTT in RPMI 1640 without phenol red) was added to the wells. To measure the proportion of living cells, the cells were incubated for 3 h with XTT-PMS reagent at 37°C, 5% CO2, humidified atmosphere allowing to form the formazan salt. The amount of soluble formazan salt produced by cellular reduction of XTT is quantified by measuring the absorbance at 490nm using the Biomek® 2000 ELISA plate reader.
(§11) %-inhibition (cytotoxicity) of each test compound was calculated in relation to untreated control cells. Inhibition curves were generated and IC50 values calculated by using GraphPad Prism.

[5] = test system: KB/HeLa (ATCC CCL17, human cervix carcinoma); test: XTT cytotoxicity assay, KB/HeLa cells; conditions: 48 h, 2 days of continuous drug exposure
Description: as §4, §5, §6, §7, §8, §9, §10, §11

[6] = test system: Aspergillus fumigatus (strain 322-384); test: Anti-fungal susceptibility test (microdilution), fungus I; conditions: Aspergillus fumigatus, no visible growth after 72 hours at 35° C, read-out: MIC
Description: as §1, §2, §3

[7] = test system: Cryptocoocus gattii (ATCC 32608); test: Anti-fungal susceptibility test (microdilution), fungus G; conditions: fungus G; no visible growth after 72 hours at 35° C; read-out: MIC
Description: as §1, §2, §3

[8] = test system: Cryptocoocus neoformans (ATCC 90112); test: Anti-fungal susceptibility test (microdilution), fungus E; conditions: fungus E; no visible growth after 72 hours at 35° C; read-out: MIC
Description: as §1, §2, §3

Structure (SMILES): CCCCCCCCCCCCCCCCOP(=O)([O-])OCC[N+]1(C)CCCCC1 [Compound 2, Phosphoric acid 2-(1-methyl-piperidin-1-yl)-ethyl ester hexadecyl ester]
- MIC [1]: 2 µg/mL (≈ 4.47 µM)
- ED50 (µg/mL) [2]: 17,50 µg/mL
- MIC [3]: 1 µg/mL (≈ 2.23 µM)
- IC50 [4]: 19.6 µM
- IC50 [5]: 5.02 µM
- MIC [6]: 2 µg/mL (≈ 4.47 µM)
- MIC [7]: 0.75 µg/mL (≈ 1.68 µM)
- MIC [8]: 1.5 µg/mL (≈ 3.35 µM)
